From publication PMC3914206 come the findings set out here.

What all share (assay type): binding
Holding throughout (set-up): KINOMEscan: ABL1(F317L)-phosphorylated / KINOMEscan: ABL1(H396P)-nonphosphorylated / KINOMEscan: ABL1(H396P)-phosphorylated / KINOMEscan: ABL1(M351T)-phosphorylated / KINOMEscan: ABL1(T315I)-phosphorylated / KINOMEscan: ABL1-nonphosphorylated / KINOMEscan: ABL1-phosphorylated / KINOMEscan: ACVR2A / KINOMEscan: ACVR2B / KINOMEscan: ADCK3 / KINOMEscan: ADCK4 / KINOMEscan: AKT1 / KINOMEscan: AKT3 / KINOMEscan: ALK / KINOMEscan: ARK5 / KINOMEscan: AURKA / KINOMEscan: AURKC / KINOMEscan: BIKE / KINOMEscan: BMPR1A / KINOMEscan: BMPR1B / KINOMEscan: BMX / KINOMEscan: BRK / KINOMEscan: BRSK1 / KINOMEscan: BRSK2 / KINOMEscan: CAMK1 / KINOMEscan: CAMK1D / KINOMEscan: CAMK1G / KINOMEscan: CAMK2A / KINOMEscan: CAMK2B / KINOMEscan: AAK1 / KINOMEscan: CAMK2D / KINOMEscan: CAMK2G / KINOMEscan: ABL1(F317I)-nonphosphorylated / KINOMEscan: ABL1(F317I)-phosphorylated / KINOMEscan: ABL1(F317L)-nonphosphorylated: unit: % Ctrl

Experiment [1] has as its target T1, panel of 442 kinases (Homo sapiens, UniProt Q99640).
T1 construct: purchased KINOMEscan
T1 sequence (Q99640 1-499): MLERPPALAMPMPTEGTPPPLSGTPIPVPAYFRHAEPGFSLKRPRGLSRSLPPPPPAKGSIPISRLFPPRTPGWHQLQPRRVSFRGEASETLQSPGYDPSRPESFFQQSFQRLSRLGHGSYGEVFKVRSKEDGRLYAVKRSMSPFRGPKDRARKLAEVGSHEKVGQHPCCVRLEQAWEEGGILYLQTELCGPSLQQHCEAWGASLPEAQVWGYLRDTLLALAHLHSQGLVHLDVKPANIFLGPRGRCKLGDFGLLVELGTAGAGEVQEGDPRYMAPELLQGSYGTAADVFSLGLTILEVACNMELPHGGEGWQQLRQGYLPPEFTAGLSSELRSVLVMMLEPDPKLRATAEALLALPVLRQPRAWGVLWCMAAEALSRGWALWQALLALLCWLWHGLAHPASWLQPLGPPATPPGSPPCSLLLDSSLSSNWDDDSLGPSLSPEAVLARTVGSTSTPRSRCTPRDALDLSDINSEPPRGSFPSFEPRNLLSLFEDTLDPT
The conditions noted are these: Compound Concentration 10 µM. The source says: (§1) We assessed the selectivity of members of this scaffold using the KINOMEscan methodology across a near comprehensive panel of 442 kinases [[18,27]].

The target of experiment [2] is T2, panel of 442 kinases (Homo sapiens, UniProt Q96NX5).
T2 construct: purchased KINOMEscan
T2 sequence (Q96NX5 whole entry): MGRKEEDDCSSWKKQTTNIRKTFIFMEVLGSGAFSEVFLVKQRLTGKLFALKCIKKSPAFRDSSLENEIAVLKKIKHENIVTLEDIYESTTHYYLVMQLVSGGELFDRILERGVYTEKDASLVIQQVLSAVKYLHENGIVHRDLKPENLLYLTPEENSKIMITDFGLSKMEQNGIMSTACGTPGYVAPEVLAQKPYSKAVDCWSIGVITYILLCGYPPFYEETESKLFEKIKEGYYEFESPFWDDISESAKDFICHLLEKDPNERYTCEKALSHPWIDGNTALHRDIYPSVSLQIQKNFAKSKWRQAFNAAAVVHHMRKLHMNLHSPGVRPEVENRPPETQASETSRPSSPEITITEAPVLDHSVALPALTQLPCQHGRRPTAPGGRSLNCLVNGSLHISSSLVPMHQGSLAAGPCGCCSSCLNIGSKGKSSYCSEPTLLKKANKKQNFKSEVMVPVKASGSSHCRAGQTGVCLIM
The conditions noted are these: Compound Concentration 10 µM.
Description: as §1

Experiment [3] addresses T3, panel of 442 kinases (Homo sapiens, UniProt Q6PHR2).
T3 construct: purchased KINOMEscan
T3 sequence (Q6PHR2 1-472): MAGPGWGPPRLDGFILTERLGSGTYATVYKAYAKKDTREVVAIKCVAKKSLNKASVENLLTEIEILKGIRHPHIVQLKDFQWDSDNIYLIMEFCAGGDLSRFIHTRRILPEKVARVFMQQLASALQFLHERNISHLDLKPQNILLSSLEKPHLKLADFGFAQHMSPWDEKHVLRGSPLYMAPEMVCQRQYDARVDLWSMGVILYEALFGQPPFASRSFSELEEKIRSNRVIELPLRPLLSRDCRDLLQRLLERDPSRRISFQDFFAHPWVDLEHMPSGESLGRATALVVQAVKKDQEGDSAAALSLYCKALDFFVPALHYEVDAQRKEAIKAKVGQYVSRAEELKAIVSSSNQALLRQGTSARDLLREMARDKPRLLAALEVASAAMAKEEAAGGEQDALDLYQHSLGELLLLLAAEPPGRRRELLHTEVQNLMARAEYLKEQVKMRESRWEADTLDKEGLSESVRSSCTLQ
The conditions noted are these: kinase ULK3; compound concentration 10 µM.
Description: as §1

Molecules are shown by their SMILES.

Turning to `COc1cc(C(=O)N2CCC(N3CCN(C)CC3)CC2)ccc1Nc1ncc2c(n1)N(C1CCCC1)c1ccccc1C(=O)N2C` [Compound 25, 11-cyclopentyl-2-((2-methoxy-4-(4-(4-methylpiperazin-1-yl)piperidine-1-carbonyl)phenyl)amino)-5-methyl-5H-benzo[e]pyrimido[5,4-b][1,4]diazepin-6(11H)-one], on panel of 442 kinases [1], the “KINOMEscan: PKMYT1” value came out at 100. On panel of 442 kinases [2], the “KINOMEscan: CAMK1G” value is on record as 90. Further, on panel of 442 kinases [3], the “% Ctrl, ULK3” value was found to be 100 % Ctrl.

Turning to `COc1cc(C(=O)N2CCC(N3CCN(C)CC3)CC2)ccc1Nc1ncc2c(n1)N1CCc3cccc(c31)C(=O)N2C` [Compound 24], at panel of 442 kinases [1], the “KINOMEscan: PKMYT1” value was 70. In addition, at panel of 442 kinases [2], the “KINOMEscan: CAMK1G” value is reported as 56. For the same compound, at panel of 442 kinases [3], the “% Ctrl, ULK3” value was found to be 100 % Ctrl.

Consider `COc1cc(C(=O)N2CCC(N3CCN(C)CC3)CC2)ccc1Nc1ncc2c(n1)N(C)c1ccccc1C(=O)N2C` [15 (LRRK2-IN-1)], for which the “KINOMEscan: PKMYT1” value at panel of 442 kinases [1] turned out to be 80. For the same compound, at panel of 442 kinases [2], the “KINOMEscan: CAMK1G” value is listed as 74. For the same compound, on panel of 442 kinases [3], the “% Ctrl, ULK3” value was 100 % Ctrl.

As to `CCOc1cc(C(=O)N2CCC(N3CCN(C)CC3)CC2)ccc1Nc1ncc2c(n1)N(C1CCCC1)c1ccccc1C(=O)N2C` [Compound 26], the “KINOMEscan: PKMYT1” value on panel of 442 kinases [1] is listed as 100. At panel of 442 kinases [2], the “KINOMEscan: CAMK1G” value is reported as 95. Also, on panel of 442 kinases [3], the “% Ctrl, ULK3” value worked out at 100 % Ctrl.
